Data reported in patent US20260053931A1, “MDM2 TARGETING PROTACS” (THE WISTAR INSTITUTE OF ANATOMY AND BIOLOGY, priority 2023, published 2026).

What was measured:
MDA-MB-436 mammospheres = assay: Area of formed mammospheres, MDA-MB-436; type: cell-based, human; settings: MDA-MB-436, 3-fold lower concentration than the MDM2 inhibitors, 72 hr
Procedure: (§1) FIGS. 21A-21E show the apoptosis induction of p53-inactivated TNBC cells in 2D and 3D cultures by the MDM2-PROTAC YX-02-030. A-B. Colony formation assays (A. Triplicate, 12 days) and mammosphere formation (B. Triplicate 72 hrs) of MDA-MB-231 and MDA-MB-436 cells in the presence of the indicated compounds or DMSO control (−); representative pictures shown. C-E. Formed mammospheres of MDA-MB-231 and MDA-MB-436 cells were treated with the compounds indicated or DMSO control (−), and area (C. n=10 mammospheres, relative to pre-treatment area, 72 hr), real-time imaging (IncuCyte) and quantification of Caspase-3/7 activity (D. n=4-5 wells/compound), and survival/ATP assays (E. Quadruplicate, 72 hr) were performed; representative images shown; scale bar 300 m. Mean±SEM (A-C and E). For A, *P<0.0001 and **P<0.0001, comparing 1 M and 2 M PROTAC, respectively, to control compounds and DMSO vehicle control. For B, *P<0.0046, **P<0.0001, and ***P<0.0001, comparing 0.5 M, 1 M, and 2 M PROTAC, respectively, to control compounds and DMSO vehicle control. For C, *P<0.0001 and **P<0.0001, comparing 2 M and 4 M/6 M PROTAC, respectively, to control compounds and DMSO vehicle control. […]
These were then evaluated in 3D culture as to when the YX-02-030 was effective at preventing TNBC cell mammosphere formation and eliminating already formed mammospheres. […]

Cal27 = assay: Cell death of other cancer cell lines: Cal27; type: cell-based; settings: Homo sapiens, CAL-27; Cal27, Head & Neck
Procedure: The PROTACs prepared herein were tested for their use in other cancer cell lines to determine activity in multiple different types of cancer.

[1] = tested on: TNBC patient-derived explants; assay: Patient-derived TNBC explants; type: cell-based, human
Procedure: FIGS. 27A-27E show TP53 mutant TNBC patient-derived explants undergo apoptosis following treatment with the MDM2-PROTAC YX-02-030. A. TP53 sequenced in five fresh TNBC patient samples and used in explant and 3D mammosphere cultures. B-C. TNBC patient-derived explants were treated with the compounds indicated and Western blotting (B) and immunohistochemistry (IHC) of FFPE sections for cleaved Caspase-3 (C, n=3 paired patient samples) were performed. Representative images of H&E and cleaved Caspase-3 (CC3) IHC shown, including normal breast epithelium treated with MDM2-PROTAC YX-02-030; scale bar 300 m. D-E. Mammosphere cultures were established from TNBC patient samples, treated with the indicated compounds, and live-cell detection of Caspase-3/7 activity (D, quadruplicate) and mammosphere survival/ATP production (E, quadruplicate) were measured.
To assess the effects of YX-02-030 on TNBC patient samples, fresh, surgically-resected tumor from five TNBC patients was obtained, and 80% were from Black/African American patients (FIG. 26). Each tumor had TP53 missense mutations with two having the same hot-spot (R248Q) p53 mutation and one that had 3 TP53 mutations (FIG. 27A). […]

MDA-MB-231 cells = assay: Proteomics analysis of degradation selectivity; type: cell-based, human; settings: 5 μM, 8 hours
Procedure: A proteomics analysis was performed to assess the selectivity of degradation by YX-02-030. MDA-MB-231 cells were treated for 8 hours with 5 μM of YX-02-030 or DMSO in triplicate and processed to provide 25 μg of protein loaded on a 10% acrylamide gel. The entire protein-containing gel regions were excised, digested with trypsin and analyzed by liquid chromatography tandem mass spectrometry (LC-MS/MS) using a 240-min gradient as described (Chae et al., 2016). Peptide sequences were identified using MaxQuant 1.6.3.3 (Cox & Mann, 2008). MS/MS spectra were searched against a UniProt human protein database. […] Under these experimental conditions Mdm2 was not able to be detected either in the treated or untreated samples.

[2] = tested on: Mdm2-/-p53-/- sarcoma cells; assay: Murine Mdm2-/-p53-/- sarcoma cells, MTT; type: cell-based, mouse; settings: MTT assay, 48 hrs
Excerpt: A-B. Murine Mdm2+/+p53-null sarcoma cells treated with Mdm2 PROTAC (YX-02-030), control YX-02-023 (−), or vehicle (DMSO). A. Western blots after 24 hrs (cleaved caspase 3, CC3. Mdm2^−/−p53^−/− fibroblasts were a control for the Western blot). B. Dose response curve (MTT assay, 48 hrs). C. Dose response curves of murine Mdm2^−/−p53^−/− sarcoma cells treated with Mdm2 PROTAC (YX-02-030), negative controls (−), a Bcl2/Bclx/Bclw inhibitor (+), or vehicle control (MTT assay, quadruplicate, 48 hrs- MTT assay, B-C graphed relative to DMSO).

[3] = tested on: MDA-MB-231 and MDA-MB-436 cells; assay: Colony formation assay; type: cell-based, human; parameters: unit of the concentration uncertain; settings: 12 days
Procedure: as §1
The ability of the PROTAC-mediated degradation of MDM2 to alter the clonogenic potential of p53-inactivated TNBC cells was evaluated by performing colony formation assays with MDA-MB-231 and MDA-MB-436 cells. […]

CCOc1cc(C(C)(C)C)ccc1C1=N[C@](C)(c2ccc(Cl)cc2)[C@](C)(c2ccc(Cl)cc2)N1C(=O)N1CCN(CC(=O)NCCOCCOCCOCC(=O)N[C@H](C(=O)N2C[C@H](O)C[C@H]2C(=O)NCc2ccc(-c3scnc3C)cc2)C(C)(C)C)CC1 (racemic) [YX-02-030]
reduction of mammosphere area (MDA-MB-436 mammospheres): 43.8%
IC50 (Cal27): 2300 nM
apoptosis markers by Western blot ([1]; explants): increased levels of cleaved Caspase-3 and cleaved PARP
MDM2 protein in patient tumors ([1]; within 4 days of treatment): MDM2 protein was lost
observable proteins affected (MDA-MB-231 cells): < 10%
proteins significantly changed out of 4237 (MDA-MB-231 cells): 31 proteins
response of Mdm2-/-p53-/- sarcoma cells [2]: not responsive
colony numbers ([3]; 1 (unit uncertain)): significant reduction in colony numbers
colonies formed ([3]; 2 (unit uncertain)): < 2 colonies
